The values that follow come from patent EP1137632B1, “THIOUREA INHIBITORS OF HERPES VIRUSES” (Wyeth, priority 1998, dated 2000).

Converted amounts (≈) assume the structure as drawn.

One assay relates to VZV strain Ellen. Description: VZV antiviral (ELISA) assay in human foreskin fibroblast cells. It counts as cell-based, varicella-zoster virus. Conditions: for IC50: Human alphaherpesvirus 3, VZV strain Ellen in HFF cells, read-out: IC50 (ug/ml) VZV; for inhibition at 10 µg/mL: Human alphaherpesvirus 3, Fibroblast, read-out: % inhibition 10 ug/ml VZV. The protocol:
VZV antiviral (ELISA) assay
For the generation of stock VZV to be used in the assay, VZV strain Ellen (ATCC #VR-1367) is used to infect human foreskin fibroblast (HFF) cells at low multiplicity (less than 0.1) and incubated overnight at 37°C in 5% CO2. After the overnight incubation, the mixture of uninfected and VZV-infected HFF infected cells are then harvested and added to each well of 96-well plates (3.5x10^4 cells in 100 µl DMEM supplemented with 2% FBS) which contain test compound or the reference standard drug control (in 100µl DMEM supplemented with 2% FBS per well). These cells are incubated for three days at 37°C in 5% CO2, then fixed for ELISA assay. The primary antibody is murine anti-VZV glycoprotein II monoclonal antibody (Applied Biosystems, Inc. #13-145-100) and the secondary antibody is goat anti-mouse IgG linked to β-galactosidase. Thus the extent of viral replication is determined by assessing β-galactosidase activity by quantifying the generation of the 4-methyl umbelliferone fluorescent cleavage product after addition of the methyl umbelliferyl-β-D-galactoside (Sigma #M1633) substrate on a microfluorimeter (365nm for excitation and 450nm for emission). Antiviral activity (IC50) of the test compound is determined by comparing the flourescence obtained in absence of compound to that obtained in the presence of compound.
In general terms: An ELISA detects its analyte on a solid surface through an enzyme-linked reagent.

The subject of the next assay is HSV-1. Briefly: HSV antiviral (ELISA) assay in Vero cells. It counts as cell-based, herpes simplex virus type 1. The following applies: Human alphaherpesvirus 1; HSV-1 in Vero cells; read-out: IC50 (ug/ml) HSV. As to the method: HSV antiviral (ELISA) assay
Vero cells (ATCC #CCL-81) are plated on 96-well tissue culture plates at 3.5x10^4 cells per 100µl tissue culture DMEM (Dulbecco's modified Eagle media) supplemented with 2% fetal bovine serum (FBS) in each well. After overnight incubation @ 37°C (in 5% CO2) and 30 minutes prior to infection with HSV-1 (multiplicity of infection equal to 0.006), cells are either untreated, or treated with test compound (multiple concentrations) or reference standard drug control. After approximately 24 hours post-infection incubation @ 37°C (in 5% CO2), cells are fixed for ELISA assay. The primary antibody is murine anti-HSV glycoprotein D monoclonal primary antibody and the secondary antibody is goat anti-mouse IgG linked to β-galactosidase. Thus the extent of viral replication is determined by assessing β-galactosidase activity by quantifying the generation of the 4-methyl umbelliferone fluorescent cleavage product after addition of the methyl umbelliferyl-β-D-galactoside (Sigma #M1633) substrate on a microfluorimeter (365nm for excitation and 450nm for emission). Antiviral activity (IC50) of the test compound is determined by comparing the flourescence obtained in absence of compound to that obtained in the presence of compound.

In assay [1] the test system is HCMV recombinant mutant virus. Description: microbe, parasite or virus in culture. In kind it is cell-based, human cytomegalovirus. Conditions: Human betaherpesvirus 5, read-out: IC50 (ug/ml) HCMV. From the text: Microtiter plate assay. Ninety-six well plate cultures of human foreskin fibroblasts are infected in the presence of inhibitor compound with a HCMV recombinant mutant virus whose genome contains the prokaryotic beta-glucuronidase gene (Jefferson, R. A., S. M. Burgess, and D. Hirsh. 1986. Beta-glucuronidase from Escherichia coli as a gene fusion marker. Proc. Natl. Acad. Sci. USA 83:8447-8451) whose expression is controlled by a viral promoter. An example of such a virus is RV145 (Jones, T. R., V. P. Muzithras, and Y. Gluzman. 1991. Replacement mutagenesis of the human cytomegalovirus genome: US10 and US11 gene products are nonessential. J. Virol. 65:5860-5872). Since it is under the control of a viral promoter, beta-glucuronidase expression is an indirect indicator of growth and replication of HCMV in this assay. At 96 hours post-infection, the infected cell lysates are prepared (using 50mM sodium phosphate [pH7.0] containing 0.1 % Triton X-100 and 0.1% sarkosyl) and assayed for beta-glucuronidase activity using a substrate for the enzyme which when cleaved yields either a product which can be measured colorimetrically in a spectrophotometer or fluorescently in a microfluorimeter. Examples of such substrates are p-nitrophenyl-beta-D-glucuronide and methylumbelliferylglucuronide, respectively. The presence of an antiviral compound is indicated by the reduced expression of the HCMV genome resident beta-glucuronidase gene, compared to the absence of inhibitor. […] Data from this assay generated using varying amounts of inhibitor compound is also used to estimate the IC50 of an inhibitor compound.

On to `Cc1cc(NC(=S)NC(C)c2ccc(F)cc2)ccc1NC(=O)c1ccccc1F` (stereo not drawn) [Example 1045, 2-Fluoro-N-(4-{3-[1-(4-fluoro-phenyl)-ethyl]-thioureido}-2-methyl-phenyl)-benzamide], for which the results for the IC50 (in the assay on VZV strain Ellen; in the assay with HSV-1; in assay [1]) were 0.05 µg/mL (≈ 0.118 µM), 6.2 µg/mL (≈ 14.6 µM) and 1.5 µg/mL (≈ 3.53 µM), respectively.
On to `COc1cc(NC(=S)NC(C)c2ccc(F)cc2)c(OC)cc1NC(=O)c1ccccc1F` (stereo not drawn) [Example 1025, 2-Fluoro-N-(4-{3-[1-(4-fluoro-phenyl)-ethyl]-thioureido}-2,5-dimethoxy-phenyl)-benzamide], for which the IC50 (in the assay on VZV strain Ellen; with HSV-1; in assay [1]) was above 10 µg/mL each time.
Take `CC(NC(=S)Nc1ccc(NC(=O)c2ccccc2F)c(C(F)(F)F)c1)c1ccc(C#N)cc1` (stereo not drawn) [Example 1036, N-(4-{3-[1-(4-Cyano-phenyl)-ethyl]-thioureido}-2-trifluoromethyl-phenyl)-2-fluoro-benzamide]: the IC50 turned out to be 0.31 µg/mL (≈ 0.637 µM) with VZV strain Ellen, 4 µg/mL (≈ 8.22 µM) in the assay with HSV-1 and 2.1 µg/mL (≈ 4.32 µM) in assay [1].
As to `CC(NC(=S)Nc1ccc(NC(=O)c2ccccc2F)c(C(F)(F)F)c1)c1ccc(Br)cc1` (stereo not drawn) [Example 1035, N-(4-{3-[1-(4-Bromo-phenyl)-ethyl)-thioureido}-2-trifluoromethyl-phenyl)-2-fluoro-benzamide], the IC50 in the assay on VZV strain Ellen turned out to be 0.032 µg/mL (≈ 0.0592 µM); with HSV-1, 3.1 µg/mL (≈ 5.74 µM); in assay [1] it was 2.3 µg/mL (≈ 4.26 µM).
Regarding `CC(NC(=S)Nc1ccc(NC(=O)c2ccccc2F)c(C(F)(F)F)c1)c1ccc(F)cc1` (stereo not drawn) [Example 1034, 2-Fluoro-N-(4-{3-[1-(4-fluoro-phenyl)-ethyl]-thioureido}-2-trifluoromethyl-phenyl)-benzamide], the IC50 in the assay with VZV strain Ellen is 0.03 µg/mL (≈ 0.0626 µM); in the assay with HSV-1 it was above 10 µg/mL; in assay [1], 2.6 µg/mL (≈ 5.42 µM).
For `CC(NC(=S)Nc1ccc(NC(=O)c2ccccc2F)c(C(=O)c2ccccc2)c1)c1ccc(F)cc1` (stereo not drawn) [Example 1044, N-(2-Benzoyl-4-{3-[1-(4-fluoro-phenyl)-ethyl]-thioureido}-phenyl)-2-fluoro-benzamide], in that order: 3.3 µg/mL (≈ 6.4 µM), above 10 µg/mL and 1.8 µg/mL (≈ 3.49 µM).
For `CC(NC(=S)Nc1ccc(NC(=O)c2cc3ccccc3o2)c(C(F)(F)F)c1)c1ccc(F)cc1` (stereo not drawn) [Example 1067, Benzofuran-2-carboxylic acid (4-{3-[1-(4-fluoro-phenyl)-ethyl]-thioureido}-2-trifluoromethyl-phenyl)-amide], in that order: 0.26 µg/mL (≈ 0.518 µM), 3.8 µg/mL (≈ 7.58 µM) and 3.3 µg/mL (≈ 6.58 µM).
Consider `Cc1cc(NC(=S)NC(C)c2ccc(F)cc2)ccc1NC(=O)c1cc2ccccc2cn1` (stereo not drawn) [Example 1074, Isoquinoline-3-carboxylic acid (4-{3-[1-(4-fluoro-phenyl)-ethyl]-thioureido}-2-methyl-phenyl)-amide], for which the IC50 stood at 0.07 µg/mL (≈ 0.153 µM) in the assay with VZV strain Ellen, 5.8 µg/mL (≈ 12.6 µM) in the assay with HSV-1 and 4 µg/mL (≈ 8.72 µM) in assay [1].
With `CC(NC(=S)Nc1ccc(NC(=O)c2cc3ccccc3o2)c(C#N)c1)c1ccc(F)cc1` (stereo not drawn) [Example 1070, Benzofuran-2-carboxylic acid (2-cyano-4-{3-[1-(4-fluoro-phenyl)-ethyl]-thioureido}-phenyl)-amide], the results for the IC50 (in the assay with VZV strain Ellen; with HSV-1; in assay [1]) were 0.2 µg/mL (≈ 0.436 µM), 4.1 µg/mL (≈ 8.94 µM) and 2 µg/mL (≈ 4.36 µM), respectively.
Consider `COc1cc(NC(=O)c2ccccc2F)ccc1NC(=S)Nc1cc(Cl)c(C)cc1OC` [Example 418, N-{4-[3-(5-Chloro-2-methoxy-4-methyl-phenyl)-thioureido]-3-methoxy-phenyl}-2-fluoro-benzamide], for which, in the assay with VZV strain Ellen, the inhibition at 10 µg/mL turned out to be 10%. Moreover, the IC50 in the assay on VZV strain Ellen is above 10 µg/mL; with HSV-1, 0.05 µg/mL (≈ 0.105 µM); in assay [1], 3 µg/mL (≈ 6.33 µM).
Take `C[C@H](NC(=S)Nc1ccc(NC(=O)c2cc3ccccc3cn2)c(C(F)(F)F)c1)c1ccc(Br)cc1` [Example 1103, Isoquinline-3-carboxylic acid (4-{3-[(1S)-1-(4-bromo-phenyl)-ethyl]-thioureido}-2-trifluoromethyl-phenyl)-amide]: the IC50 in the assay on VZV strain Ellen stood at 0.12 µg/mL (≈ 0.209 µM); in assay [1], 5 µg/mL (≈ 8.72 µM).
As to `C[C@@H](NC(=S)Nc1ccc(NC(=O)c2ccccc2F)c(C#N)c1)c1ccc(Br)cc1` [Example 1105, N-(4-{3-[(1R)-1-(4-Bromo-phenyl)-ethyl]-thioureido}-2-cyano-phenyl)-2-fluoro-benzamide], the IC50 is above 7.5 µg/mL in the assay with VZV strain Ellen and 1.1 µg/mL (≈ 2.21 µM) in assay [1].
For the molecule `O=C(Nc1ccc(NC(=S)Nc2ccc(NC(=O)c3ccccc3F)cc2)cc1Cl)c1ccccc1` [Example 401, N-{4-[({[4-(Benzoylamino)-3-chloro-phenyl]-amino}-thioxomethyl)-amino]-phenyl}-2-fluoro-benzamide], the inhibition at 10 µg/mL with VZV strain Ellen worked out at 70%. Also, the IC50 in the assay on VZV strain Ellen was above 15 µg/mL; with HSV-1, above 10 µg/mL; in assay [1], 2.5 µg/mL (≈ 4.82 µM).
On to `CCCCOc1cc(NC(=S)NC(C)c2ccc(F)cc2)ccc1NC(=O)c1ccccc1F` (stereo not drawn) [Example 1055, N-(2-Butoxy-4-{3-[1-(4-fluoro-phenyl)-ethyl]-thioureido}-phenyl)-2-fluoro-benzamide], for which the IC50 in the assay with VZV strain Ellen was 0.32 µg/mL (≈ 0.662 µM); in the assay with HSV-1, above 10 µg/mL; in assay [1], above 10 µg/mL.
With `C[C@H](NC(=S)Nc1ccc(NC(=O)c2ccccc2F)c(C#N)c1)c1ccc(Cl)cc1` [Example 1109, N-{4-[({[(1S)-1-(4-chlorophenyl)ethyl]amino}carbothioyl)amino]-2-cyanophenyl}-2-fluorobenzamide], the IC50 with VZV strain Ellen was 0.07 µg/mL (≈ 0.155 µM); in assay [1], above 10 µg/mL.
On to `CC(NC(=S)Nc1ccc(NC(=O)c2ccccc2F)cc1C(F)(F)F)c1ccc(F)cc1` (stereo not drawn) [Example 1102, 2-Fluoro-N-(4-{3-[1-(4-fluoro-phenyl)-ethyl]-thioureido}-3-trifluoromethyl-phenyl)-benzamide], for which the IC50 with VZV strain Ellen was above 7.5 µg/mL; in assay [1], 5 µg/mL (≈ 10.4 µM).
Regarding `C[C@H](NC(=O)Nc1ccc(NC(=O)c2ccccc2F)c(C#N)c1)c1ccc(F)cc1` [Example 1106, N-{2-cyano-4-[({[(1S)-1-(4-fluorophenyl)ethyl]amino}carbonyl)amino]phenyl}-2-fluorobenzamide], the IC50 with VZV strain Ellen is 0.014 µg/mL (≈ 0.0333 µM); in assay [1] it was above 10 µg/mL.
For `C[C@H](NC(=S)Nc1ccc(NC(=O)c2ccccc2F)c(C#N)c1)c1ccc(F)cc1` [Example 1108, N-{4-[({[(1S)-1-(4-fluorophenyl)ethyl]amino}carbothioyl)amino]-2-cyanophenyl)-2-fluorobenzamide], the IC50 is 0.03 µg/mL (≈ 0.0687 µM) in the assay on VZV strain Ellen and above 10 µg/mL in assay [1].
`C[C@H](NC(=S)Nc1ccc(NC(=O)c2ccccc2F)c(C#N)c1)c1ccc(Br)cc1` [Example 1104, N-(4-{3-[(1S)-1-(4-Bromo-phenyl)-ethyl]-thioureido}-2-cyano-phenyl)-2-fluoro-benzamide]: the values for the IC50 (with VZV strain Ellen; in assay [1]) were 0.09 µg/mL (≈ 0.181 µM) and above 10 µg/mL, respectively.
Consider `Cc1cc(NC(=O)c2ccccc2F)ccc1NC(=O)N[C@H](C)c1ccc(F)cc1` [Example 1107, 2-fluoro-N-{4-[({[(1R)-1-(4-fluorophenyl)ethyl]amino}carbonyl)amino]-3-methylphenyl}benzamide], for which the results for the IC50 (in the assay with VZV strain Ellen; in assay [1]) were 0.04 µg/mL (≈ 0.0977 µM) and above 10 µg/mL, respectively.
